One test concerns LN229 MGMT+/MMR+ cells. The test is described as follows: Short-term cell viability assay, LN229 MGMT+/MMR+. The class given is cell-based. As to conditions: Homo sapiens, read-out: IC50 against LN229 cell lines, MGMT+ MMR+. Here is the method: (§1) LN229 MGMT- and MGMT+ cell lines were a gift from B. Kaina (Johannes Gutenberg University Mainz, Mainz, Germany) and grown in Gibco® Duilbecco's Modified Eagle Medium with 10% fetal bovine serum (DMEM). For each compound tested, the relationship between MGMT status and MMR status and compound activity, in terms of IC50 values ([…]), was determined by the following method. On day 1, LN229 isogenic cells of varying MGMT and MMR status were seeded in 96 well format at a density of 2000 cells/well in 100 μL of DMEM media and allowed to adhere overnight. On day 2, a drug master plate was made with 100×the desired maximal concentration of test compound and serially diluted by 2 until 100×the minimal desired concentration, with one DMSO control. Then daughter plates were created with varied concentrations from 3-times the minimal concentration to 3-times the maximal desired concentration. Afterwards, 50 μL of daughter drug plate was added to 100 μL of the seeded cells for a final concentration of 1×in triplicate. Cells were allowed to grow for 6 days. On day 7, the cells were fixed, and stained with Hoechst nuclear dye and imaged to determine growth inhibition.
(§2) For each compound tested, the relationship between MGMT status and MMR status and compound activity, in terms of IC50 values (in μM), was determined. In addition, for each compound, the therapeutic index (TI) was calculated, according to the equation MGMT TI=IC50 (MGMT+/MMR+) divided by IC50 (MGMT−/MMR+). The T1 indicates the efficacy of a compound in treating the targeted MGMT-cancer cells as compared to potential for the same compound to damage, or have adverse effects against, normal cells which are MGMT+cells, The higher the value of the TI, the safer the compound is. […] MMR RI (resistance index)=IC50 (MGMT−/MMR−) divided by IC50 (MGMT−/MMR+). The higher the value of the RI, the less likely that resistance to the compound will develop.
(§3) Short-term Cell Viability Assay. Cells were seeded in 96-well plates at 1000 or 2000 cells/well and allowed to adhere at 23° C. for 60 min and then incubated overnight at 37° C. Cells were treated with indicated concentrations of compounds in triplicate for 4-6 days prior to fixation with 3.7% paraformaldehyde and nuclear staining with 1 μg/mL Hoechst 33342 dye. Cells were imaged on a Cytation 3 imaging reader (BioTek) and quantified using CellProfiler software. For in vitro short-term growth delay experiments, IC50 values were determined from the nonlinear regression equation, [inhibitor] vs normalized response with variable slope.

Another test has as its system LN229 MGMT+/MMR− cells. Put plainly: Short-term cell viability assay, LN229 MGMT+/MMR- (shRNA targeting MSH2). The class given is cell-based. The note with it: Homo sapiens. On the procedure: as §1, §2, §3
For a further test, the system named is LN229 MGMT−/MMR+ cells. The test is described as follows: Short-term cell viability assay, LN229 MGMT-/MMR+. The class given is cell-based, human. As to conditions: for IC50: Homo sapiens, read-out: IC50 against LN229 cell lines, MGMT− MMR+; for TI / RI, in words: LN229 isogenic lines; for MGMT− TI (therapeutic index): IC50 (MGMT+/MMR+) divided by IC50 (MGMT−/MMR+). On the procedure:
as §1, §2, §3

Another test deals with LN229 MGMT−/MMR− cells. The test is described as follows: Short-term cell viability assay, LN229 MGMT-/MMR- (shRNA targeting MSH2). The class given is cell-based, human. The note with it: for IC50: Homo sapiens, read-out: IC50 against LN229 cell lines, MGMT− MMR−; for activity in MGMT−/MMR− cells, in words: LN229 MGMT−/MMR−; for MGMT− RI (resistance index): IC50 (MGMT−/MMR−) divided by IC50 (MGMT−/MMR+). Here is the method: as §1
For each compound tested, the relationship between MGMT status and MMR status and compound activity, in terms of IC50 values (in μM), was determined. In addition, for each compound, the therapeutic index (TI) was calculated, according to the equation MGMT TI=IC50 (MGMT+/MMR+) divided by IC50 (MGMT−/MMR+). […] MMR RI (resistance index)=IC50 (MGMT−/MMR−) divided by IC50 (MGMT−/MMR+).
Short-term Cell Viability Assay. Cells were seeded in 96-well plates at 1000 or 2000 cells/well and allowed to adhere at 23° C. for 60 min and then incubated overnight at 37° C. […] Cells were imaged on a Cytation 3 imaging reader (BioTek) and quantified using CellProfiler software. For in vitro short-term growth delay experiments, IC50 values were determined from the nonlinear regression equation, [inhibitor] vs normalized response with variable slope.

The next test relates to MGMT+ LN229 cells. The test is described as follows: Clonogenic survival assay, LN229 MGMT+ cells. The format is cell-based, human. Here is the method: (§4) In vitro clonogenic survival assays (CSAs) were performed using four isogenic LN229 glioblastoma cell lines.
(§5) Clonogenic Cell Survival Assay. Cells of each line were pretreated with the test drug in culture for 48-72 hours at the specified dilutions. The cells were then immediately seeded in six-well plates in triplicate at three-fold dilutions, ranging from 9000 to 37 cells per well. Depending on colony size, these plates were kept in the incubator for 10 to 14 days. After incubation, colonies were washed in phosphate-buffered saline (PBS) and stained with crystal violet. Colonies were counted by hand. Counts were normalized to plating efficiency of the corresponding treatment condition.

The next test deals with MGMT− LN229 cells. The test is described as follows: Clonogenic survival assay, LN229 MGMT- cells. The class given is cell-based, human. Here is the method:
as §4, §5

The test system of test [1] is four isogenic LN229 glioblastoma cell lines. Put plainly: Short-term cell viability assays, statements across the isogenic lines. The format is cell-based, human. As to conditions: regardless of MMR status. On the procedure: as §1, §2, §3
Another test concerns MGMT−/MMR− cells. The test is described as follows: IR alkaline comet assay, LN229 MGMT-/MMR-, time course. The format is cell-based, human. The note with it: time points 2-24 h. Here is the method:
The IR alkaline comet assay, adapted for ICL detection was performed to determine if ICLs were formed in MGMT-cells treated with KL-50. In this assay, cells were sequentially exposed to genotoxins and ionizing radiation, and then analyzed by single cell alkaline gel electrophoresis. Attenuation of the IR-induced comet tail is indicative of ICL formation.
IR Alkaline Comet Assay. This assay was performed utilizing the CometAssay™ Kit (Trevigen) according to the alkaline assay protocol, with the addition of slide irradiation post-lysis. Cells were trypsinized, washed with 1×PBS, added to melted Comet LMAgarose (Trevigen), and spread on Trevigen CometSlides at a density of 1000 cells per sample in 50 μL. Lysis solution (Trevigen) with 10% DMSO was added overnight at 4° C. Slides were removed from lysis buffer and irradiated to 0 or 10 Gy using an XRAD 320 X-Ray System (Precision X-Ray) at 320 kV, 12.5 mA, and 50.0 cm SSD, with a 2 mm Al filter and 20 cm×20 cm collimator. Slides were then placed in alkaline buffer (200 mM NaOH, 1 mM EDTA) for 45 min, followed by electrophoresis in 850 mL alkaline buffer for 45 min at 4° C. Slides were washed and stained with SYBR gold (Invitrogen) per Trevigen assay protocol. Slides were imaged on a Cytation 3 imaging reader (BioTek), and comets were analyzed using CometScore 2.0 software (TriTek).

Where [2] appears, read: LN-229, Table II, read-out: IC50 against LN229 cell lines, MGMT MMR−.
[3] abbreviates: LN-229, 144 h, Table 1, 6 days growth, Hoechst nuclear count.
Setting [4] is: LN-229, 144 h, Table 1, 6 days growth, read-out: IC50 against LN229 cell lines, MGMT+ MMR−.
[5] abbreviates: LN-229, 144 h, Table 1, 6 days growth.

SMILES strings stand for the structures. Where two headings read alike, the source gives them in different places. A value given as a limit tells only on which side of the number the result lay.

A word on the IC50: it is the concentration at which inhibition is half-maximal.

Consider `O=NN(CCCl)C(=O)NC1CCCCC1` [CCNU, 1-(2-chloroethyl)-3-cyclohexyl-1-nitrosourea, reference compound], for which the IC50 in the test on LN229 MGMT+/MMR+ cells (LN-229, Table II) amounted to 21.6 ± 3.2 µM; in the test with LN229 MGMT+/MMR− cells (setting [2]), 26.8 ± 7.3 µM; in the test with LN229 MGMT−/MMR+ cells (LN-229, Table II) it was 6.3 ± 0.3 µM; in the test with LN229 MGMT−/MMR− cells (LN-229, Table II), 4.2 ± 0.2 µM. For the same compound, the “TI / RI, in words” value with LN229 MGMT−/MMR+ cells was “poor TI”. In the test with LN229 MGMT−/MMR+ cells (Table II), the “MGMT− TI (therapeutic index)” value is 3.4. Further, the “activity in MGMT−/MMR− cells, in words” value with LN229 MGMT−/MMR− cells is “effective against MGMT−/MMR− cells”. Besides, the “MGMT− RI (resistance index)” value with LN229 MGMT−/MMR− cells (Table II) is given as 0.7. Besides, in the test with MGMT+ LN229 cells (irrespective of MMR status), the “clonogenic survival, activity in MGMT+ cells” value was “cytotoxic to MGMT+cells”. The “clonogenic survival, activity in MMR− cells” value in the test on MGMT− LN229 cells (isogenic cells lacking MMR) is on record as “effective in MMR− cells”.
Regarding `NC(=O)c1[nH]cnc1/N=N/NCCF` [Compound E1, 5-[(1E)-3-(2-fluoroethyl)triaz-1-en-1-yl]-1H-imidazole-4-carboxamide], the IC50 was above 100 µM in the test with LN229 MGMT+/MMR+ cells (setting [3]), above 100 µM in the test on LN229 MGMT+/MMR− cells (setting [4]), 24 ± 2 µM in the test with LN229 MGMT−/MMR+ cells (setting [5]) and 22 ± 1 µM in the test on LN229 MGMT−/MMR− cells (setting [5]). Besides, the “activity in MGMT−/MMR− cells, in words” value in the test with LN229 MGMT−/MMR− cells is on record as “exquisite sensitivity”. For the same compound, the “activity in MGMT+ cells, in words” value in test [1] was “limited activity”. Also, the “surviving fraction of MGMT+ cells” value with MGMT+ LN229 cells (at concentrations as high as 1000 μM of E1) is recorded as “above 0.1”; with MGMT+ LN229 cells (at the same concentration (less than 100 μM of E1), regardless of MMR status), around 1.0. In the test with MGMT− LN229 cells (at less than 100 μM of E1, regardless of MMR status), the “surviving fraction of MGMT− cells” value was “dropped sharply”.
Turning to `NC(=O)c1nc[nH]c1/N=N/N(CCF)C(=O)Cc1ccccc1` [Compound E2, (E)-5-(3-(2-fluoroethyl)-3-(2-phenylacetyl)triaz-1-en-1-yl)-1H-imidazole-4-carboxamide], the IC50 with LN229 MGMT+/MMR+ cells (setting [3]) is above 100 µM; in the test with LN229 MGMT+/MMR− cells (setting [4]) it was 72 ± 30 µM; in the test with LN229 MGMT−/MMR+ cells (setting [5]), 28 ± 1 µM; in the test with LN229 MGMT−/MMR− cells (setting [5]), 21 ± 1 µM.
For `CC(=O)N(CCF)/N=N/c1[nH]cnc1C(N)=O` [Compound E3, (E)-5-(3-acetyl-3-(2-fluoroethyl)triaz-1-en-1-yl)-1H-imidazole-4-carboxamide], the half-maximal inhibitory concentration (IC50) with LN229 MGMT+/MMR+ cells (setting [3]) was above 100 µM; with LN229 MGMT+/MMR− cells (setting [4]) it was above 100 µM; with LN229 MGMT−/MMR+ cells (setting [5]) it was 40 ± 2 µM; in the test with LN229 MGMT−/MMR− cells (setting [5]), 46 ± 4 µM. Moreover, in the test on LN229 MGMT−/MMR− cells, the “activity in MGMT−/MMR− cells, in words” value is on record as “exquisite sensitivity”. Moreover, the “activity in MGMT+ cells, in words” value in test [1] is recorded as “limited activity”.
Consider `NC(=O)c1nc[nH]c1/N=N/N(CCF)C(=O)OCc1ccccc1` [Compound E4], for which the IC50 in the test on LN229 MGMT+/MMR+ cells (setting [3]) is 14 ± 1 µM; in the test with LN229 MGMT+/MMR− cells (setting [4]) it was 11 ± 1 µM; in the test with LN229 MGMT−/MMR+ cells (setting [5]), 8 ± 1 µM; in the test with LN229 MGMT−/MMR− cells (setting [5]), 17 ± 1 µM.
With `CN(CCF)/N=N/c1nc[nH]c1C(N)=O` [Compound E5, 4-[(1E)-3-(2-fluoroethyl)-3-methyltriaz-1-en-1-yl]-1H-imidazole-5-carboxamide], the IC50 with LN229 MGMT+/MMR+ cells (LN-229, 144 h) is above 199 µM; in the test with LN229 MGMT+/MMR− cells (LN-229, 144 h, read-out: IC50 against LN229 cell lines, MGMT+ MMR−) it was above 100 µM; in the test on LN229 MGMT−/MMR+ cells (LN-229, 144 h) it was 14.2 ± 1 µM; with LN229 MGMT−/MMR− cells (LN-229, 144 h), above 100 µM.
Turning to `NC(=O)c1ncn2c(=O)n(CCCl)nnc12` [MTZ, 3-(2-chloroethyl)-4-oxoimidazo[5,1-d][1,2,3,5]tetrazine-8-carboxamide, reference compound], the IC50 with LN229 MGMT+/MMR+ cells (LN-229, Table II) turned out to be 61.9 ± 4.7 µM; in the test with LN229 MGMT+/MMR− cells (setting [2]) it was 50.8 ± 4.2 µM; in the test on LN229 MGMT−/MMR+ cells (LN-229, Table II), 9 ± 0.4 µM; in the test with LN229 MGMT−/MMR− cells (LN-229, Table II), 6.9 ± 0.7 µM. In the test with LN229 MGMT−/MMR+ cells, the “TI / RI, in words” value is reported as “poor TI”. The “MGMT− TI (therapeutic index)” value in the test on LN229 MGMT−/MMR+ cells (Table II) was 6.9. Further, the “activity in MGMT−/MMR− cells, in words” value with LN229 MGMT−/MMR− cells was “effective against MGMT−/MMR− cells”. Moreover, in the test with LN229 MGMT−/MMR− cells (Table II), the “MGMT− RI (resistance index)” value is recorded as 0.8. Also, the “DNA damage in unirradiated samples” value in the test on MGMT−/MMR− cells is recorded as “maximal damage at 2 h”. Moreover, the “DNA mobility after IR, rate of ICL formation” value in the test on MGMT−/MMR− cells was “reduced DNA mobility within 2 h”.

The record behind these values is patent US20240294478A1, “ANTI-CANCER COMPOUNDS AND METHODS OF USE” (YALE UNIVERSITY, priority 2021, published 2024).
